Results on one compound are retold here after PMC10266688 (PLOS ONE, 2023).

Data set [1] relates to TOV21G and ES2 cells. The data set is described as follows: Annexin V apoptosis assay. The conditions noted are these: 12 h.
The test system of data set [2] is proteasome (4UbFL reporter). Briefly: 4UbFL reporter in ES2-4UbFL tumor and leg muscle of nude mice. Format: in vivo, mouse. The conditions noted are these: single IP dose Up284 20mg/kg or bortezomib 0.75 mg/kg, 4 h and 24 h. How it is done:
A-C) Female nude mice were inoculated IP with ES2-luc cells, a human ovarian cancer line expressing luciferase. […] The IP tumor tissue and electroporated normal muscle tissue, being spatially distinct, were identified with separate regions of interest (ROI) after simultaneous imaging with IVIS.
Briefly mice were inoculated IP with ES2 cells stably expressing 4UbFL. After 48 h, the mice were injected with luciferin, imaged and then randomized into 3 groups (n = 5/group). Next, leg muscle of each mouse was electroporated with 4UbFL plasmid (considered as normal tissue). After 48 h (i.e. day 4) the mice were re-imaged and basal bioluminescence (0 h) was separately measured in the leg muscle and peritoneal ROIs.

Data set [3] in a line: Tissue distribution in CD1 mice, LC-MS/MS. The data set is classed as in vivo, mouse. The conditions noted are these: 40 mg/kg IV. How it is done: Tissue homogenates were prepared at a concentration of 200 mg/mL in PBS. After vortex-mixing and centrifuging for 5 min at 2700 rpm. […] Mobile phase A was water containing 0.1% formic acid, and mobile phase B was acetonitrile containing 0.1% formic acid. The gradient started with mobile phase B at 20% and was held at 20% for 0.5 min with a flow rate of 0.3 mL/min, then increased to 100% over 0.5 minutes and held for 2.0 min, and finally returned back to 20% mobile phase B and allowed to equilibrate until 4.1min. […] The lower limit of quantitation (LLOQ) in plasma was 10 ng/mL.
A) ES2 cells stably transduced with the 4UbFL reporter plasmid were treated with compounds at indicated doses for 4 h. The cells were then washed, lysed and their luminescence measured by a luminometer after addition of luciferin. B) Female CD1 mice electroporated with 4UbFL plasmid in their leg muscle. After 48 h, the mice were injected with luciferin, imaged by IVIS for their basal bioluminescence and randomized into two groups of five. […] D) Up284 tissue distribution. […] Up284 levels in tissue samples were analyzed by HPLC. E) Up284 pharmacokinetics. […] Blood was collected at indicated time points thereafter and analyzed for Up284 levels by HPLC.
Up284 levels were analyzed in all major tissues (brain, colon, heart, kidney, liver, lung and spleen) by liquid chromatography–mass spectrometry (LC–MS/MS).

Regarding `N#Cc1ccc(/C=C2/C(=O)/C(=C/c3ccc(C#N)cc3)C23CCNCC3)cc1` [Up284], the “apoptosis, Up284 in combination with cisplatin” value in data set [1] is reported as “no indication of synergy”. The “4UbFL bioluminescence signal in muscle tissue vs tumor” value in data set [2] is “similarly enhanced the bioluminescence signal”. Further, the “plasma level at 24 h” value in data set [3] was “low”. In data set [3] (24 h), the “tissue levels (brain, colon, heart, kidney, liver, lung and spleen)” value is “accumulated in all the tissues, particularly the lungs”.
